These are literature values, as cited in patent publication US20140005605A1, “USE OF QUORUM SENSING INHIBITORS AND BIOFILM DISPERSING AGENTS FOR CONTROLLING BIOFILM-ASSOCIATED IMPLANTABLE MEDICAL DEVICE RELATED INFECTIONS” (priority 2012, published 2014).

The subject of data set [1] is Pseudomonas aeruginosa. The note with it: mice treated with the QSI; promoted clearance by the murine immune system.
Data set [2] has as its system biofilms formed by Pseudomonas aeruginosa.
The test system of data set [3] is biofilms formed by Staphylococcus aureus.

With `O=C1C=C(Br)/C(=C/Br)O1` [furanone C-30], the biofilm formation result in data set [1] is on record as “inhibited biofilm formation”.
With `CCCCCCC/C=C\C(=O)O` [cis-2-decanoic acid], the effectiveness against biofilms entry in data set [2] and in data set [3] was “effective” each time.
With `O=[N+]([O-])c1cc[n+]([O-])cc1` [4-nitro-pyridine-N-oxide], the effectiveness against biofilms result in data set [2] and in data set [3] was “effective” in each case.
